The text below walks through data of patent US20250312499A1, “KISSPEPTIN RECEPTOR (KISS1R) TARGETED THERAPEUTICS AND USES THEREOF” (priority 2024, published 2025).

The assay concerns the target human kisspeptin receptor (Homo sapiens (Human), UniProt Q969F8). The experiment in a line: Human KISS1R binding assay (membrane competition binding). The following applies: 90 min at room temperature; competition with 0.2 nM [125I]-metastin (45-54); Flp-In T-Rex 293 kisspeptin membranes; metal complexes nonradioactive Ga, In, Lu; read-out: hKiSSR Binding Ki (90 min). The protocol:
Crude membrane fractions are prepared from Flp-In T-Rex 293 (Thermo Fisher) cell line expressing the human kisspeptin receptor. The cells are grown to 85-100% confluence on standard tissue culture dishes in Dulbecco's Modified Eagles Medium (DMEM) (Corning) supplemented with 10% FBS (Gemini), 1% penicillin-streptomycin-glutamine (Gibco), 500 μg/mL hygromycin, and 15 μg/mL blastacidin. 48 hrs prior to preparing membranes 10 μg/ml of tetracycline is added to the culture media to induce receptor expression. To prepare membranes, cells are scraped and collected in 1× Dulbecco's phosphate buffered saline (Corning) and then pelleted at 1000 RPMs. The cell pellet is reconstituted in membrane preparation buffer (20 mM HEPES, 6 mM MgCl2 and 1 mM EGTA, protease inhibitor tablets (Pierce), pH 7.4) and placed in a cell disruption vessel (Parr Instrument company) at 1000 PSI for 30 min on ice. The pressurized contents are then released and spun down at 1000 RPMs and the supernatant is collected and further centrifuged at 15,000 RPMs to pellet the membranes. The membrane pellet is resuspended in membrane preparation buffer, snap frozen and stored at −80° C. for later use.
The human kisspeptin membrane binding assay utilizes the following components: radiolabel [^125I]-metastin (45-54) (human) (Perkinhmer), crude Flp-In T-Rex 293 kisspeptin membranes, and competing small molecule and peptide ligands. The assay is initiated by combining in assay buffer (50 mM TrisHCl, 5 mM MgCl2, 2 mM EGTA, 10 mM CaCl2, 0.1% BSA, pH 7.4) a dose response of competing ligand (final concentrations are typically 0-10,000 nM), 5-10 μg of Flp-In T-Rex 293 kisspeptin membranes, and 0.2 n M [^125I]-metastin (45-54) in a 96-well assay plate and allowed to incubate 90 minutes at room temperature. Assay contents are then filtered through unifilter CF/C: microplates (PerkinElmer) pre-soaked with 0.5% BSA and washed with 9×400 μL of cold wash buffer (10 mM HEPES, 500 mM NaCl, 0.1% Tween-20, pH7.4). Assay plates are read using a Microbeta^2 (PerkinElmer) and Ki values for compounds are determined using a GraphPad Prism 9.3 non-linear regression analysis.

Molecules are shown by their SMILES. pKi: −log10 of the molar value. Numbered stars: 1 amine (or outer) side, 2 acyl side, 3 side chain; on linkers, the order of the positions; unused ones are H or OH. Square brackets hold non-standard residues; d marks the D form. Peptide text beside a SMILES is read from it. * marks the point of attachment. DOTA = O=C(O)CN1CCN(CC(=O)O)CCN(CC(=O)*)CCN(CC(=O)O)CC1; Gly(N-(3-F-4-Me-benzyl)) = Cc1ccc(CNCC(=O)*)cc1F; Acetyl(2-(HOCH2CH2OCH2CH2O)) = O=C(COCCOCCO)*; Phe(4-CN) = N#Cc1ccc(C[C@H](N)C(=O)O)cc1; X3 = CNC(=N)N1CCC(N[*:1])(C(=O)[*:2])CC1; Phe(3-F) = N[C@@H](Cc1cccc(F)c1)C(=O)O; 2Nal = N[C@@H](Cc1ccc2ccccc2c1)C(=O)O; Trx = NC[C@H]1CC[C@H](C(=O)O)CC1; 4Pal = N[C@@H](Cc1ccncc1)C(=O)O; 4Amb = NCc1ccc(C(=O)O)cc1; 4Abz = Nc1ccc(C(=O)O)cc1; Api = NC1(C(=O)O)CCNCC1; AEEA = NCCOCCOCC(=O)O; Ahx = NCCCCCC(=O)O; azaGly = NNC(=O)O A value given as a limit tells only on which side of the number the result lay.

human kisspeptin receptor, sequence (Q969F8 whole entry): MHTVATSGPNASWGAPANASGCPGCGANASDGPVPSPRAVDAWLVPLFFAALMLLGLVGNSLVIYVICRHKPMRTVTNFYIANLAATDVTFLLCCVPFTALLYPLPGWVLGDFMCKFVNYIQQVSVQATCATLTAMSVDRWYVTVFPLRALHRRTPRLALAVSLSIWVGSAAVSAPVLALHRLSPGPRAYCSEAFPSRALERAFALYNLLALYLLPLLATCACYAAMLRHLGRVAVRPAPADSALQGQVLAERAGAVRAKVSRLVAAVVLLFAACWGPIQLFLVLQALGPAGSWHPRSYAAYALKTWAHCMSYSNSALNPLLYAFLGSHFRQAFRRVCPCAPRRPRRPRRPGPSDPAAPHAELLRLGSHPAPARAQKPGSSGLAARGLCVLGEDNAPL

The term pKi denotes −log10 of the Ki, conventionally taken in molar units. On to `Cc1ccc(CNCC(=O)N2CCC(NC(=O)[C@H](CC(C)C)n3cc([C@H](Cc4ccccc4)NC(=O)[C@H](N)CCCCNC(=O)CN4CCN(CC(=O)O)CCN(CC(=O)O)CCN(CC(=O)O)CC4)nn3)(C(=O)N[C@@H](Cc3c[nH]c4ccccc34)C(N)=O)CC2)cc1F` [Compound 39], for which the pKi was less than 7.00.

For `Cc1ccc(CNCC(=O)N2CCC(NC(=O)[C@H](CC(C)C)NC(=O)NNC(=O)[C@H](Cc3ccccc3)NC(=O)CN3CCN(CC(=O)O)CCN(CC(=O)O)CCN(CC(=O)O)CC3)(C(=O)N[C@@H](Cc3c[nH]c4ccccc34)C(N)=O)CC2)cc1F` [Compound 49] ({DOTA}-F[azaGly]L[Api](Gly(N-(3-F-4-Me-benzyl)))W-NH2), the negative logarithm of the Ki (pKi) was less than 7.00.

`Cc1ccc(CNCC(=O)N2CCC(NC(=O)[C@H](CC(C)C)NC(=O)NNC(=O)[C@H](Cc3ccccc3)NC(=O)c3ccc(NC(=O)CN4CCN(CC(=O)O)CCN(CC(=O)O)CCN(CC(=O)O)CC4)cc3)(C(=O)N[C@@H](Cc3c[nH]c4ccccc34)C(N)=O)CC2)cc1F` [Compound 50] ({DOTA-4Abz}-F[azaGly]L[Api](Gly(N-(3-F-4-Me-benzyl)))W-NH2): the pKi was greater than 8.00.

On to `Cc1ccc(CNCC(=O)N2CCC(NC(=O)[C@@H](/C=C/CNC(=O)[C@H](Cc3ccccc3)NC(=O)CCCCCNC(=O)CN3CCN(CC(=O)O)CCN(CC(=O)O)CCN(CC(=O)O)CC3)CC(C)C)(C(=O)N[C@@H](Cc3c[nH]c4ccccc34)C(N)=O)CC2)cc1F` [Compound 51], for which the pKi is greater than 8.00.

Consider `Cc1ccc(CNCC(=O)N2CCC(NC(=O)[C@H](CC(C)C)NC(=O)NNC(=O)[C@H](Cc3ccccc3)NC(=O)CCCCCNC(=O)CN3CCN(CC(=O)O)CCN(CC(=O)O)CCN(CC(=O)O)CC3)(C(=O)N[C@@H](Cc3ccccc3)C(N)=O)CC2)cc1F` [Compound 55] ({DOTA-Ahx}-F[azaGly]L[Api](Gly(N-(3-F-4-Me-benzyl)))F-NH2), for which the pKi is greater than 8.00.

Turning to `Cc1ccc(CNCC(=O)N2CCC(NC(=O)[C@H](CC(C)C)NC(=O)NNC(=O)[C@H](Cc3ccccc3)NC(=O)[C@@H](NC(=O)[C@H](CC(N)=O)NC(=O)[C@@H](Cc3c[nH]c4ccccc34)NC(=O)[C@@H](Cc3ccc(O)cc3)NC(=O)COCCOCCNC(=O)CN3CCN(CC(=O)O)CCN(CC(=O)O)CCN(CC(=O)O)CC3)[C@@H](C)O)(C(=O)N[C@@H](Cc3c[nH]c4ccccc34)C(N)=O)CC2)cc1F` [Compound 57] ({DOTA-AEEA}-[dY][dW]NTF[azaGly]L[Api](Gly(N-(3-F-4-Me-benzyl)))W-NH2), the pKi is greater than 8.00.

On to `Cc1ccc(CNCC(=O)N2CCC(NC(=O)[C@H](CC(C)C)NC(=O)NNC(=O)[C@H](Cc3ccccc3)NC(=O)[C@@H](NC(=O)[C@H](CC(N)=O)NC(=O)[C@H](Cc3ccc4ccccc4c3)NC(=O)[C@@H](Cc3ccc(O)cc3)NC(=O)COCCOCCNC(=O)CN3CCN(CC(=O)O)CCN(CC(=O)O)CCN(CC(=O)O)CC3)[C@@H](C)O)(C(=O)N[C@@H](Cc3c[nH]c4ccccc34)C(N)=O)CC2)cc1F` [Compound 58] ({DOTA-AEEA}-[dY][2Nal]NTF[azaGly]L[Api](Gly(N-(3-F-4-Me-benzyl)))W-NH2), for which the pKi is greater than 8.00.

On to `Cc1ccc(CNCC(=O)N2CCC(NC(=O)[C@H](CC(C)C)NC(=O)NNC(=O)[C@H](Cc3cccc(F)c3)NC(=O)[C@@H](NC(=O)[C@H](CC(N)=O)NC(=O)[C@H](CCCCNC(=O)CN3CCN(CC(=O)O)CCN(CC(=O)O)CCN(CC(=O)O)CC3)NC(=O)[C@@H](Cc3ccc(O)cc3)NC(=O)COCCOCCO)[C@@H](C)O)(C(=O)N[C@@H](Cc3c[nH]c4ccccc34)C(N)=O)CC2)cc1F` [Compound 64] ({Acetyl(2-(HOCH2CH2OCH2CH2O))}-[dY]K(DOTA)NT[Phe(3-F)][azaGly]L[Api](Gly(N-(3-F-4-Me-benzyl)))W-NH2), for which the pKi is greater than 8.00.

For the compound `CNC(=N)N1CCC(NC(=O)[C@H](CC(C)C)NC(=O)NNC(=O)[C@H](Cc2ccccc2)NC(=O)[C@@H](NC(=O)[C@H](CC(N)=O)NC(=O)[C@@H](Cc2c[nH]c3ccccc23)NC(=O)[C@@H](Cc2ccc(O)cc2)NC(=O)CCCCCNC(=O)CN2CCN(CC(=O)O)CCN(CC(=O)O)CCN(CC(=O)O)CC2)[C@@H](C)O)(C(=O)N[C@@H](Cc2c[nH]c3ccccc23)C(N)=O)CC1` [Compound 91] ({DOTA-Ahx}-[dY][dW]NTF[azaGly]L[X3]W-NH2), the pKi was greater than 8.00.

Regarding `Cc1ccc(CNCC(=O)N2CCC(NC(=O)[C@H](CC(C)C)NC(=O)NNC(=O)[C@H](Cc3ccccc3)NC(=O)[C@@H](NC(=O)[C@H](CC(N)=O)NC(=O)[C@@H](Cc3c[nH]c4ccccc34)NC(=O)[C@@H](Cc3ccc(O)cc3)NC(=O)CCCCCNC(=O)CN3CCN(CC(=O)O)CCN(CC(=O)O)CCN(CC(=O)O)CC3)[C@@H](C)O)(C(=O)N[C@@H](Cc3ccc(C#N)cc3)C(N)=O)CC2)cc1F` [Compound 104] ({DOTA-Ahx}-[dY][dW]NTF[azaGly]L[Api](Gly(N-(3-F-4-Me-benzyl)))[Phe(4-CN)]-NH2), the pKi is greater than 8.00.

As for `Cc1ccc(CNCC(=O)N2CCC(NC(=O)[C@H](CC(C)C)NC(=O)NNC(=O)[C@H](Cc3ccccc3)NC(=O)[C@@H](NC(=O)[C@H](CC(N)=O)NC(=O)[C@@H](Cc3c[nH]c4ccccc34)NC(=O)[C@@H](Cc3ccc(O)cc3)NC(=O)CCCCCNC(=O)CN3CCN(CC(=O)O)CCN(CC(=O)O)CCN(CC(=O)O)CC3)[C@@H](C)O)(C(=O)N[C@@H](Cc3ccncc3)C(N)=O)CC2)cc1F` [Compound 105] ({DOTA-Ahx}-[dY][dW]NTF[azaGly]L[Api](Gly(N-(3-F-4-Me-benzyl)))[4Pal]-NH2), the pKi was greater than 8.00.

As to `Cc1ccc(CNCC(=O)N2CCC(NC(=O)[C@H](CC(C)C)NC(=O)NNC(=O)[C@H](Cc3ccccc3)NC(=O)[C@@H](NC(=O)[C@H](CC(N)=O)NC(=O)[C@@H](Cc3c[nH]c4ccccc34)NC(=O)[C@H](CC(N)=O)NC(=O)[C@@H](Cc3ccc(O)cc3)NC(=O)CCCCCNC(=O)CN3CCN(CC(=O)O)CCN(CC(=O)O)CCN(CC(=O)O)CC3)[C@@H](C)O)(C(=O)N[C@@H](Cc3ccncc3)C(N)=O)CC2)cc1F` [Compound 106] ({DOTA-Ahx}-[dY]N[dW]NTF[azaGly]L[Api](Gly(N-(3-F-4-Me-benzyl)))[4Pal]-NH2), the pKi is greater than 8.00.

In the case of `Cc1ccc(CNCC(=O)N2CCC(NC(=O)[C@H](CC(C)C)NC(=O)NNC(=O)[C@H](Cc3ccccc3)NC(=O)[C@@H](NC(=O)[C@H](CC(N)=O)NC(=O)[C@@H](Cc3c[nH]c4ccccc34)NC(=O)[C@@H](Cc3c[nH]cn3)NC(=O)[C@@H](Cc3ccc(O)cc3)NC(=O)CCCCCNC(=O)CN3CCN(CC(=O)O)CCN(CC(=O)O)CCN(CC(=O)O)CC3)[C@@H](C)O)(C(=O)N[C@@H](Cc3ccncc3)C(N)=O)CC2)cc1F` [Compound 107] ({DOTA-Ahx}-[dY][dH][dW]NTF[azaGly]L[Api](Gly(N-(3-F-4-Me-benzyl)))[4Pal]-NH2), the pKi is greater than 8.00.

Consider `Cc1ccc(CNCC(=O)N2CCC(NC(=O)[C@H](CC(C)C)NC(=O)NNC(=O)[C@H](Cc3ccccc3)NC(=O)[C@@H](NC(=O)[C@H](CC(N)=O)NC(=O)NNC(=O)[C@@H](Cc3ccc(O)cc3)NC(=O)CCCCCNC(=O)CN3CCN(CC(=O)O)CCN(CC(=O)O)CCN(CC(=O)O)CC3)[C@@H](C)O)(C(=O)N[C@@H](Cc3c[nH]c4ccccc34)C(N)=O)CC2)cc1F` [Compound 108] ({DOTA-Ahx}-[dY][azaGly]NTF[azaGly]L[Api](Gly(N-(3-F-4-Me-benzyl)))W-NH2), for which the pKi was greater than 8.00.

Take `Cc1ccc(CNCC(=O)N2CCC(NC(=O)[C@H](CC(C)C)NC(=O)NNC(=O)[C@H](Cc3ccccc3)NC(=O)c3ccc(CNC(=O)CN4CCN(CC(=O)O)CCN(CC(=O)O)CCN(CC(=O)O)CC4)cc3)(C(=O)N[C@@H](Cc3c[nH]c4ccccc34)C(N)=O)CC2)cc1F` [Compound 109] ({DOTA-4Amb}-F[azaGly]L[Api](Gly(N-(3-F-4-Me-benzyl)))W-NH2): the pKi was greater than 8.00.

In the case of `Cc1ccc(CNCC(=O)N2CCC(NC(=O)[C@H](CC(C)C)NC(=O)NNC(=O)[C@H](Cc3ccccc3)NC(=O)[C@H]3CC[C@H](CNC(=O)c4ccc(CNC(=O)CN5CCN(CC(=O)O)CCN(CC(=O)O)CCN(CC(=O)O)CC5)cc4)CC3)(C(=O)N[C@@H](Cc3c[nH]c4ccccc34)C(N)=O)CC2)cc1F` [Compound 110] ({DOTA-4Amb-Trx}-F[azaGly]L[Api](Gly(N-(3-F-4-Me-benzyl)))W-NH2), the pKi is greater than 8.00.

As to `Cc1ccc(CNCC(=O)N2CCC(NC(=O)[C@H](CC(C)C)NC(=O)NNC(=O)[C@H](Cc3ccccc3)NC(=O)[C@H](C)NC(=O)[C@H](CC(N)=O)NC(=O)[C@@H](Cc3c[nH]c4ccccc34)NC(=O)[C@@H](Cc3ccc(O)cc3)NC(=O)CCCCCNC(=O)CN3CCN(CC(=O)O)CCN(CC(=O)O)CCN(CC(=O)O)CC3)(C(=O)N[C@@H](CC(C)C)C(N)=O)CC2)cc1F` [Compound 113] ({DOTA-Ahx}-[dY][dW]NAF[azaGly]L[Api](Gly(N-(3-F-4-Me-benzyl)))L-NH2), the pKi is greater than 8.00.
